Assay: Test 3: effect of each of primary ingredients on blood ethanol concentration in rats
Assay type: in vivo, rat
Conditions: pueraria flower 0.28, phaseoli 0.39, pinelliae 0.09, fructose 1.2 g/kg
Procedure: The 50 g of pueraria flower was finely chopped and extracted with 11 of water at 100° C. for 2.5 hours. The extract was filtered and lyophilized in a freeze dryer. The 10.7 g of the powder was obtained.
The phaseoli radiati semen and pinelliae tuber were extracted and lyophilized in the same manner as described for puerariae flos. The 14.6 g and 7 g of powder were obtained from phaseoli radiati semen and pinelliae tuber, respectively.
The powder of pueraria flower, phaseoli radiati semen, pinelliae tuber, and fructose were dissolved in an adquate volume of water and administered to rats fasted 18 to 24 hours at a dose of 0.28 g, 0.39 g, 0.09 g and 1.2 g/kg body weight, respectively. The rats were treated in the same manner as Test 2.

Compound: O=C(CO)[C@@H](O)[C@H](O)[C@H](O)CO [Fructose]
- Alcohol concentration in blood (1 hr after 3 g/kg ethanol): 1.984 g/L
- Alcohol concentration in blood (2 hr after 3 g/kg ethanol): 1.654 g/L
- Alcohol concentration in blood (4 hr after 3 g/kg ethanol): 0.724 g/L
- Alcohol concentration in blood (6 hr after 3 g/kg ethanol): 0.325 g/L

Reference: patent publication US5324516A, “Galenic composition for decreasing blood alcohol concentration” (priority 1991, dated 1994)
